Measured values published in patent US8852883B2 (priority 2008, dated 2014).
Entries after “also recorded” stand apart in the source; their conditions may differ. Like-named read-outs stand apart in the source and are kept apart here. *: point of attachment. FITC = O=C1OC2(c3ccc(O)cc3Oc3cc(O)ccc32)c2ccc(NC(=S)*)cc21; Ahx = NCCCCCC(=O)O

Columns and labels:
[1] = test system: enzymes derived from V. cholerae; type: biochemical
[2] = test system: B. thuringiensis-derived enzyme; type: biochemical
[3] = test system: (virulent) B. anthracis-derived enzyme; type: biochemical, Bacillus anthracis
[4] = test system: (virulent) B. anthracis-derived enzyme; type: biochemical, Bacillus anthracis; remark: listed apart in the source
lysostaphin = biological target: T1, lysostaphin (Staphylococcus simulans, UniProt P10547); type: biochemical
T1 construct: purchased Sigma

[5] = test system: P. aeruginosa-derived enzyme; type: biochemical, Pseudomonas aeruginosa
B. cereus = type: biochemical
B. thuringiensis = type: biochemical
[6] = test system: enzymes derived from C. botulinum; type: biochemical
[7] = test system: enzymes derived from B. globigii; type: biochemical
[8] = test system: enzymes derived from E. herbicola; type: biochemical
[9] = test system: V. cholerae-derived enzyme; type: biochemical
B. cereus cells = type: cell-based; details: for Location of fluorescent BikKam1 fragments (fluorescence microscopy): 0.01 M BikKam1
Thermolysin = biological target: T2, Thermolysin (Bacillus thermoproteolyticus, UniProt P00800); type: biochemical
T2 construct: purchased Sigma
T2 sequence (P00800 233-548): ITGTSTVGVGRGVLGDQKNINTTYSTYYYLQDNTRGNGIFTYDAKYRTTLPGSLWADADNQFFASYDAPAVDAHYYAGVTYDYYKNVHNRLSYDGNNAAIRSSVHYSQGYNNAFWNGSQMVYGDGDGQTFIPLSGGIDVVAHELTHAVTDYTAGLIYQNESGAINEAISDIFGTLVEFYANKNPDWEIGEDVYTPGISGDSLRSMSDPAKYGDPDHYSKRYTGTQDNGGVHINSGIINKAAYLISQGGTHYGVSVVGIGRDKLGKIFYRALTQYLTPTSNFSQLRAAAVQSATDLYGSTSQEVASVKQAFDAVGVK

[10] = test system: Collagenase Vibrio/Dispase; type: biochemical, Vibrio sp
Collagenase Clostridium = type: biochemical, Clostridium sp.
[11] = biological target: Anthrax Lethal Factor (LF) (Bacillus anthracis, UniProt P15917); type: biochemical
[12] = test system: currently used micro-organisms; type: biochemical
[13] = test system: currently used micro-organisms; type: biochemical; remark: listed apart in the source

T1 sequence (P10547 248-493, species assumed): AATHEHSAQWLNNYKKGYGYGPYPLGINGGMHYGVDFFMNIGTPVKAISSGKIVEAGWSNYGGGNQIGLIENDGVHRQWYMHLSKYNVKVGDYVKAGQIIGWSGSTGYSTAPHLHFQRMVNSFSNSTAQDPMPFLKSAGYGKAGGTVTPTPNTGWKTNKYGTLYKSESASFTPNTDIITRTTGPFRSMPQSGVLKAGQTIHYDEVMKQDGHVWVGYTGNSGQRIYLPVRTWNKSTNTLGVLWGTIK
Chain of Anthrax Lethal Factor (LF) (P15917 34-809 limits assumed): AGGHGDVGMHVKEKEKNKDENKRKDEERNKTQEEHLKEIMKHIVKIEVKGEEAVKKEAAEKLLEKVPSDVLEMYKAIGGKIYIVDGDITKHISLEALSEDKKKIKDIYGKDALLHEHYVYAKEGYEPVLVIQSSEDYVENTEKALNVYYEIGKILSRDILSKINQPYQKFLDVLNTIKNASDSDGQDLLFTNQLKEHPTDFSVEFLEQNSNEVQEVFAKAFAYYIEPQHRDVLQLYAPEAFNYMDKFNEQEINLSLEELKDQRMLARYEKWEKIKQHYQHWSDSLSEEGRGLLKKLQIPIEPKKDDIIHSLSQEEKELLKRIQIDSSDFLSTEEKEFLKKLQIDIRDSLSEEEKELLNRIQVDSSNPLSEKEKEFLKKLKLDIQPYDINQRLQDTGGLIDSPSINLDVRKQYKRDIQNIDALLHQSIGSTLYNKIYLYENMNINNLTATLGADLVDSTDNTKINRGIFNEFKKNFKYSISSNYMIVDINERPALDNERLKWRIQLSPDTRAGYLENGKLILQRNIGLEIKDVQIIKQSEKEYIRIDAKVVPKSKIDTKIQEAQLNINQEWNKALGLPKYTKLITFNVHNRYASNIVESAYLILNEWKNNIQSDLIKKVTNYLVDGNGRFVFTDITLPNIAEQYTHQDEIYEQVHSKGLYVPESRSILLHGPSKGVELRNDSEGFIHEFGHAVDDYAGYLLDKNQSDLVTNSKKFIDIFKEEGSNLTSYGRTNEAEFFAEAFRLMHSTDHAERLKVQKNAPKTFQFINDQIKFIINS

**Q.** Which “Fluorescent signal of FRET: cleavage of substrate by V. cholerae” value [1] does the source give for “FITC-Ahx-Leu-DLeu-Leu-Lys-DABCYL [BikKam5]” here?
**A.** Some cleavage

**Q.** What about the “Fluorescent signal of FRET: cleavage of substrate by B. thuringiensis-derived enzyme” value [2] of the same substance?
**A.** Some weak activity

**Q.** What about the “Fluorescent signal of FRET: cleavage of substrate by B. anthracis-derived enzyme” value [3] of the same substance?
**A.** specifically cleaved

**Q.** What about the “Fluorescent signal of FRET: cleavage of substrate by B. anthracis-derived enzyme” value [4] of the same substance?
**A.** specifically cleaved

**Q.** For “FITC-Ahx-Gly-Gly-Gly-Gly-DABCYL ({FITC-Ahx}-GGGG-{DABCYL}) [BikKam21]”, which “Cleavage of substrate by lysostaphin” value (lysostaphin) is on record?
**A.** specifically cleaved

**Q.** What about the “Activity for P. aeruginosa compared to the other BikKam20-24 substrates” value [5] of the same substance?
**A.** slight increase in activity

**Q.** Which “Fluorescent signal of FRET: cleavage of substrate by B. thuringiensis-derived enzyme” value [2] does the source give for FITC-Ahx-DLeu-DLeu-Lys-DABCYL [BikKam4] here?
**A.** specifically cleaved

**Q.** And the “Fluorescent signal of FRET: cleavage of substrate by B. anthracis-derived enzyme” value [3]?
**A.** specifically cleaved

**Q.** What about the “Fluorescent signal of FRET: cleavage of substrate by B. anthracis-derived enzyme” value [4] of the same substance?
**A.** specifically cleaved

**Q.** With FITC-Ahx-DLeu-Leu-Lys-DABCYL [BikKam2] as the substance, how does the “Fluorescent signal of FRET: cleavage of substrate by B. thuringiensis-derived enzyme” value [2] read?
**A.** specifically cleaved

**Q.** What about the “Fluorescent signal of FRET: cleavage of substrate by B. anthracis-derived enzyme” value [3] of the same substance?
**A.** specifically cleaved

**Q.** And the “Fluorescent signal of FRET: cleavage of substrate by B. anthracis-derived enzyme” value [4]?
**A.** specifically cleaved

**Q.** And the “Fluorescent signal of FRET: cleavage of substrate by B. cereus” value (B. cereus)?
**A.** weak signal

**Q.** And the “Fluorescent signal of FRET: cleavage of substrate by B. thuringiensis” value (B. thuringiensis)?
**A.** weak signal

**Q.** Which results are given for FITC-Ahx-Leu-Leu-Lys-DABCYL [BikKam3]?
**A.** Fluorescent signal of FRET: cleavage of substrate by V. cholerae [1]: show activity; Fluorescent signal of FRET: cleavage of substrate by B. thuringiensis-derived enzyme [2]: specifically cleaved; Fluorescent signal of FRET: cleavage of substrate by C. botulinum [6]: show activity; Fluorescent signal of FRET: cleavage of substrate by B. globigii [7]: show activity; Fluorescent signal of FRET: cleavage of substrate by E. herbicola [8]: show activity; Fluorescent signal of FRET: cleavage of substrate by V. cholerae-derived enzyme [9]: specifically cleaved

**Q.** How did the “Cleavage of substrate by lysostaphin” value (lysostaphin) turn out when FITC-Ahx-Gly-Gly-Gly-DABCYL [BikKam22] was run?
**A.** somewhat cleavage

**Q.** What about the “Activity for P. aeruginosa compared to the other BikKam20-24 substrates” value [5] of the same substance?
**A.** slight increase in activity; also recorded: increase in cleavage

**Q.** What about the “Fluorescent signal of FRET: cleavage of substrate by P. aeruginosa-derived enzyme” value [5] of the same substance?
**A.** specifically cleaved

**Q.** With FITC-Ahx-Gly-DLeu-Lys-DABCYL [BikKam7] as the substance, how does the “Fluorescent signal of FRET: cleavage of substrate by B. anthracis-derived enzyme” value [3] read?
**A.** specifically cleaved

**Q.** And the “Fluorescent signal of FRET: cleavage of substrate by B. anthracis-derived enzyme” value [4]?
**A.** specifically cleaved

**Q.** And the “Fluorescent signal of FRET: cleavage of substrate by B. thuringiensis” value (B. thuringiensis)?
**A.** weak signal

**Q.** What does the source list for FITC-Ahx-Leu-DLeu-Lys-DABCYL [BikKam1]?
**A.** Fluorescent bacteria (fluorescence microscopy) (B. cereus cells; 0 hr): no fluorescent bacteria could be detected; Location of fluorescent BikKam1 fragments (fluorescence microscopy) (B. cereus cells; B. cereus, 2 hr incubation): could be detected in the cytoplasm; Location of fluorescent BikKam1 fragments (fluorescence microscopy) (B. cereus cells; B. cereus, 4 hr): besides in the cytoplasm also present in the cell wall at the new division sides; Location of fluorescent BikKam1 fragments (fluorescence microscopy) (B. cereus cells; B. cereus, 16 hr incubation): moved from the cytoplasm to the side walls; Fluorescent BikKam1 fragments in bacteria (fluorescence microscopy) (B. cereus cells; B. cereus, time not stated): Detection of fluorescent BikKam1 fragments in the cytoplasm; Fluorescent signal of FRET: cleavage of substrate by B. thuringiensis-derived enzyme [2]: Some weak activity; Fluorescent signal of FRET: cleavage of substrate by B. anthracis-derived enzyme [3]: specifically cleaved; Fluorescent signal of FRET: cleavage of substrate by B. anthracis-derived enzyme [4]: specifically cleaved; FRET signal with purified thermolysin (Thermolysin): No signal; FRET signal with purified collagenase (Vibrio sp) [10]: No signal; FRET signal with purified collagenase (Clostridium sp.) (Collagenase Clostridium): No signal; FRET signal with purified Lethal Factor [11]: No signal; Fluorescent signal of FRET: cleavage of substrate by B. globigii [7]: not capable of cleaving

**Q.** FITC-Ahx-Pro-Hyp-Lys-DABCYL [BikKam9] was tested. Which “Enzyme activity on substrate with the currently used micro-organisms” value (“Enzyme activity on substrate” for short) [12] did it give?
**A.** No significant enzyme activity

**Q.** And the “Enzyme activity on substrate” value [13]?
**A.** No significant enzyme activity

**Q.** FITC-Ahx-Leu-DVal-Lys-DABCYL [BikKam6] was tested. Which “Background with bacteria other than (virulent) B. anthracis” value [12] did it give?
**A.** hardly revealed any background

**Q.** What about the “Background with other bacteria than (virulent) B. anthracis” value ([12]; at 60 min) of the same substance?
**A.** Some weak background

**Q.** Which results are given for FITC-Ahx-Gly-DAla-Lys-DABCYL [BikKam8]?
**A.** Enzyme activity on substrate with the currently used micro-organisms [12]: No significant enzyme activity; Enzyme activity on substrate with the currently used micro-organisms [13]: No significant enzyme activity

**Q.** What does the source list for FITC-Ahx-Gly-Gly-DABCYL [BikKam23]?
**A.** Cleavage of substrate by lysostaphin (lysostaphin): not cleaved; also recorded: does not interact; Activity for P. aeruginosa compared to the other BikKam20-24 substrates [5]: lower than BikKam20-BikKam22; also recorded: significant decrease in activity; also recorded: lower activity; Fluorescent signal of FRET: cleavage of substrate by P. aeruginosa-derived enzyme [5]: specifically cleaved

**Q.** With “FITC-Ahx-Gly-Gly-Gly-Gly-Gly-DABCYL [BikKam20]” as the substance, how does the “Cleavage of substrate by lysostaphin” value (lysostaphin) read?
**A.** specifically cleaved

**Q.** And the “Activity for P. aeruginosa compared to the other BikKam20-24 substrates” value [5]?
**A.** increase in cleavage

**Q.** What about the “Fluorescent signal of FRET: cleavage of substrate by P. aeruginosa-derived enzyme” value [5] of the same substance?
**A.** specifically cleaved

**Q.** Which “Cleavage of substrate by lysostaphin” value (lysostaphin) does the source give for FITC-Ahx-Gly-DABCYL [BikKam24] here?
**A.** No significant enzyme activity

**Q.** And the “Fluorescent signal of FRET: cleavage of substrate by P. aeruginosa-derived enzyme” value [5]?
**A.** no P. aeruginosa activity

**Q.** And the “Enzyme activity on substrate” value [13]?
**A.** No significant enzyme activity
